The source of these data is patent publication US20160166701A1, “DELIVERY COMPOSITION FOR TOPICAL APPLICATIONS AND INJECTIONS AND OPHTHALMIC FORMULATIONS, METHODS FOR MANUFACTURING THEREOF, AND METHODS FOR DELIVERY OF A DRUG-DELIVERY COMPOSITION” (THERAKINE BIODELIVERY GMBH, priority 2013, published 2016).

Data set [1] relates to rabbits undergoing photorefractive keratectomy (PRK) surgery. Put plainly: Rabbit PRK study of canakinumab incorporated in the matrix formulation (Example 3). The class given is in vivo. The method, then:
In Example 3, a further rabbit study, similar to the design of Example 2 above, was performed using Novartis's canakinumab, a fully human antibody against Il-1 beta, incorporated in the matrix formulation using hyaluronic acid microparticles enhancing corneal adherence.
Even though it is described that canakinumab does differ from rabbit IL-1 in one amino acid, this study was performed to study the adherence characteristics, pk, and safety/tolerability of EpiKine delivering a different Il-1 inhibitor.

Data set [2] has as its system rabbits following photorefractive keratectomy (PRK). The note with it: rabbit, in vivo; cited from earlier work.
The subject of data set [3] is freshly isolated and subcultured corneal fibroblasts. Description: α-SMA positive corneal fibroblasts in normal or serum-free media, confocal microscopy on day 4 (Example 4). The class given is cell-based, rabbit. The note with it: serum-free media, 30 μg/mL, both subcultured and freshly isolated cells. How it is done:
Since there is a variable amount of growth factors such as IL-1 in serum, the presence of serum may offset the effect of blocking IL-1 with the matrix formulation. In this experiment, freshly isolated and subcultured corneal fibroblasts (P2-P5) were seeded at a density of 5,000 cells/cm^2 and cultured with 30 μg/mL with human recombinant IL-1ra in either normal (NM) or Serum-Free (SF) media. Cells were analyzed on day 4 for levels of α-SMA with confocal microscopy. Cell numbers in serum-free samples were too low to recover enough protein for Western Blot analysis. 5 individuals independently counted 3 images of each of 3 samples per condition for α-SMA positive cells. Serum-free media induced lower α-SMA expression in freshly isolated cells but had no effect on subcultured cells. […] This finding supports that the phenotype of subcultured cells can be influenced by the matrix formulation.
Percentage of freshly isolated (FI) and subcultured (SC) RCFs expressing α-SMA as determined from confocal immunofluorescence on day 4 in the following conditions: normal media (NM), normal media with IL-1ra (NM+IL-1ra), serum-free (SF), and serum-free with IL-1ra (SF+IL-1ra). SF conditions decreased α-SMA levels in FI but not in SC cells. […] Data represents mean+/−standard error with n=3 (* indicate p<<0.001, θ indicate p<0.05, φ indicate p<0.005).

Data set [4] has as its system rabbits undergoing photorefractive keratectomy (PRK) surgery. Put plainly: Rabbit photorefractive keratectomy (PRK) study of matrix formulation with IL-1ra versus steroid control (Example 2). To be noted: lower doses of IL-1ra and steroid group compared with higher dose of IL-1ra and control group, week 3; FIG. 6. The class given is in vivo. How it is done:
In Example 2; various concentrations of IL-1ra, i.e. 50 mg/ml or 2.5 mg/drop, 25 mg/ml or 1.25 mg/drop, and 5 mg/ml or 0.25 mg/drop (solutions A-C), were compared to a standard steroid control (fluorometholone) in rabbits undergoing photorefractive keratectomy (PRK) surgery. […] The final hyaluronic acid concentration (i.e. the hyaluronic acid concentration in the final matrix formulation) was 0.526% w/w, based on the total weight of the matrix formulation.
Each rabbit received PRK in both eyes at a 100 μm ablation depth. In each rabbit, the right eye (OD) served as the treated eye while the left eye (OS) served as control. […]
As before corneal clarity, forward scatter and haze measurement were used as out-come parameters. Haze formation and scattering was assessed via slit lamp exam by an ophthalmologist. The timing for re-epithelization to occur in both the treatment and control groups was measured.
In addition Pentacam technology was used to image the anterior segment of the eye via a rotating Scheimpflug process that supplied pictures in three dimensions, allowing for a precise measurement of the shape, thickness, and the contour of the cornea. Using this method, the center of the cornea, which is most critical for refractive surgery planning, is measured precisely because of this rotational imaging process. […]

The mark [5] stands for this setting: every data point, not statistically significant.

With canakinumab, the epithelial closure entry was “trend for faster closure” in data set [1] (1.25 mg concentration, within the canakinumab concentrations); “took longer to heal” in data set [1] (all concentrations, compared to steroid and control group, not statistically significant). The “foam layer thickness (histologic analysis)” value in data set [1] (2.5 mg and 1.25 mg concentration compared to 0.25 mg concentration) is listed as “thinner foam layers”. In data set [1] (2.5 mg concentration group, each time point), the “objective haze (Pentacam) densitometry values” is given as “trend for lower densitometry values”. Further, the corneal haze entry in data set [1] (2.5 mg concentration, almost all data points, not statistically significant) was “trend towards lower corneal haze”. In addition, the “subjective haze (slit lamp exam)” value in data set [1] (2.5 mg concentration, within the canakinumab concentrations) was “trend for lower subjective haze values”; in data set [1] (compared to the control group), “as effective as steroids”; in data set [1] (weeks 2, 4, 5, not statistically significant), “lower haze”. Besides, the “objective haze (HRT stromal haze)” value in data set [1] (2.5 mg, compared to control, week 2) was “statistically significant less haze”; in data set [1] (setting [5]), “less haze than the control group”. The adverse events result in data set [1] (any of the concentrations, preliminary results) is recorded as “No adverse events”. In data set [1] (time frame administered in this study), the “safety compared to steroids” value was “non-inferior to steroids”.

Consider “IL-1ra: IL-1ra is a biologic agent (protein) that blocks IL-1”, for which the “serious adverse events such as infections or worsening infections” value in data set [2] was “No serious adverse events”. Further, the α-SMA expression result in data set [3] was “significantly decreased”. In data set [4], the Pentacam density measurements result is “statistically significant difference”.

`CC(=O)[C@@]1(O)CC[C@H]2[C@@H]3C[C@H](C)C4=CC(=O)C=C[C@]4(C)[C@@]3(F)[C@@H](O)C[C@@]21C` [Steroids, fluorometholone, reference compound]: the “objective haze (HRT stromal haze)” value in data set [1] (setting [5]) is on record as “least haze”.
